Laboratory results published in patent publication US10689354B2, “Aminoazole derivative” (Teijin Pharma Limited, priority 2015, dated 2020).

What was measured:
[1] = molecular target: T1, androgen receptor (AR-LBD) (Rattus norvegicus, UniProt P15207); assay: Evaluation of androgen receptor affinity (PolarScreen Androgen Receptor Competitor Assay Kit, Red; fluorescence polarization); details: 22° C. for 5 hours, relative to binding rate of 1 μM DHT, read-out: AR affinity (pEC50) (converted)
T1 construct: 5 μL of 2×AR-LBD/Fluoromone AL Red Complex contained in the kit; purchased Invitrogen
T1 sequence (P15207 651-882 limits assumed): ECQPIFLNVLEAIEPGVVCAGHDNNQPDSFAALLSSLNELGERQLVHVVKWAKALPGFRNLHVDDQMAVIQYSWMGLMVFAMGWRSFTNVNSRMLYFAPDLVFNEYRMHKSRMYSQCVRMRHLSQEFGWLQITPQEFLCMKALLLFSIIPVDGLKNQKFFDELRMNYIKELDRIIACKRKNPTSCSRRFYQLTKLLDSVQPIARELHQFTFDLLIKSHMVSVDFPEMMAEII
Outline: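 Fluorescence polarization competition assay: compound was incubated in duplicate with the kit's AR-LBD/Fluoromone AL Red complex for 5 h at 22 °C. Binding was expressed relative to 1 μM DHT, and pEC50 was derived by 4-parameter fit.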

[2] = molecular target: T2, human androgen receptor (Homo sapiens, UniProt P10275); assay: Reporter assay of an androgen receptor responsive sequence (luciferase, transiently transfected HEK293 cells); format: cell-based; details: 24 hours incubation, relative to activity of 100 nM DHT, read-out: AR transcriptive activity (pEC50) (converted)
T2 construct: expressed in transfected cells; host or cells: HEK293
T2 sequence (P10275 1-920): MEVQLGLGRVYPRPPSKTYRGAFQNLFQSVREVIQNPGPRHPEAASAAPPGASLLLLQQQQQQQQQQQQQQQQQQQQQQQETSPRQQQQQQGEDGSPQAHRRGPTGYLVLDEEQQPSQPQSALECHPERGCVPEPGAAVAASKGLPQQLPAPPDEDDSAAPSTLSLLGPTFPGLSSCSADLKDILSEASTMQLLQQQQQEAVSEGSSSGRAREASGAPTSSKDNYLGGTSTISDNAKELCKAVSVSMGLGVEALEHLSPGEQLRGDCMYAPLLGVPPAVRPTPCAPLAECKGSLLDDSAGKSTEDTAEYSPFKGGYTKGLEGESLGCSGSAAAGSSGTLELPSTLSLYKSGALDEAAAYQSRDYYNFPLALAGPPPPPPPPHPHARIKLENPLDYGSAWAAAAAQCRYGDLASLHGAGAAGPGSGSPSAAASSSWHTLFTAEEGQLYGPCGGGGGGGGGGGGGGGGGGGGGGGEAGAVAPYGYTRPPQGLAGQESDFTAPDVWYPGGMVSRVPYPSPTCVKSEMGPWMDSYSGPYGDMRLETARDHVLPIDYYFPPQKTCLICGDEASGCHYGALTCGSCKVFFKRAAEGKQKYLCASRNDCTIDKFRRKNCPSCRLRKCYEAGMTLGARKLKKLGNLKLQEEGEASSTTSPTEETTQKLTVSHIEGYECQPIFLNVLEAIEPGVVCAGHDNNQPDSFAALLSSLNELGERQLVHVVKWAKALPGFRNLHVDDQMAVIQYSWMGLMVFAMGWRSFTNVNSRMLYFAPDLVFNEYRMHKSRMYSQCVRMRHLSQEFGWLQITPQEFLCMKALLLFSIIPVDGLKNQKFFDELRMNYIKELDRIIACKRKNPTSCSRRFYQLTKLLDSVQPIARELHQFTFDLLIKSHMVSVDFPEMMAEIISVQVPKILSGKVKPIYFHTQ
Outline: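 HEK293 cells transiently transfected for 3 h with ARE-firefly luciferase, full-length human AR and TK-Renilla plasmids, then exposed to compound for 24 h at 37 °C in 5% charcoal-treated FBS/DMEM. Dual-Glo luminescence read; pEC50 from 4-parameter fit relative to 100 nM DHT.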

SMILES | EC50 [1] [µM] | EC50 [2] [µM]
CS(=O)(=O)NC(=O)c1nc(N(Cc2ccc(Cl)cc2)c2ccc(C#N)cc2)sc1Cl [Example 269, 5-chloro-2-[N-[(4-chlorophenyl)methyl]-4-cyano-anilino]-N-methylsulfonyl-thiazole-4-carboxamide] | 0.0251 | 0.02
Cc1sc(N(Cc2ccccc2)c2ccc(C#N)cc2)nc1C(=O)NS(=O)(=O)Cc1ccccc1 [Compound 374, 2-(N-benzyl-4-cyano-anilino)-N-benzylsulfonyl-5-methyl-thiazole-4-carboxamide] | 0.0398 | 0.501
Cc1sc(N(CCc2cccc(Cl)c2)c2ccc(C#N)cc2)nc1C(=O)NS(C)(=O)=O [Compound 139, 2-[N-[2-(3-chlorophenyl)ethyl]-4-cyano-anilino]-5-methyl-N-methylsulfonyl-thiazole-4-carboxamide] | 0.0794 | 1.58
Cc1oc(N(CCc2ccc(OC(F)(F)F)cc2)Cc2ccc(Cl)cn2)nc1C(=O)NS(C)(=O)=O [Compound 561, 2-[(5-chloro-2-pyridyl)methyl-[2-[4-(trifluoromethoxy)phenyl]ethyl]amino]-5-methyl-N-methylsulfonyl-oxazole-4-carboxamide] | 0.0398 | 3.16
Cc1sc(N(Cc2ccccc2)c2ccc(C#N)cc2)nc1C(=O)NS(=O)(=O)CC(F)(F)F [Compound 372, 2-(N-benzyl-4-cyano-anilino)-5-methyl-N-(2,2,2-trifluoroethylsulfonyl)thiazole-4-carboxamide] | 0.0316 | 1.26
CC(C)=CCN(c1ccc(C#N)cc1)c1nc(C(=O)NS(C)(=O)=O)c(C)s1 [Compound 439, 2-[4-cyano-N-(3-methylbut-2-enyl)anilino]-5-methyl-N-methylsulfonyl-thiazole-4-carboxamide] | 0.0501 | 0.126
Cc1sc(N(Cc2ccc(OCc3cccnc3)cc2)c2ccc(C#N)cc2)nc1C(=O)NS(C)(=O)=O [Compound 567, 2-[4-cyano-N-[[4-(3-pyridylmethoxy)phenyl]methyl]anilino]-5-methyl-N-methylsulfonyl-thiazole-4-carboxamide] | 0.1 | > 10
Cc1sc(N(Cc2ccc(Cl)cc2Cl)c2ccc(C#N)cc2)nc1C(=O)NS(C)(=O)=O [Compound 413, 2-[4-cyano-N-[(2,4-dichlorophenyl)methyl]anilino]-5-methyl-N-methylsulfonyl-thiazole-4-carboxamide] | 0.0251 | 0.501
Cc1oc(N(Cc2ccccc2)c2ccc(C(F)(F)F)nc2)nc1C(=O)NS(C)(=O)=O [Compound 620, 2-[benzyl-[6-(trifluoromethyl)-3-pyridyl]amino]-5-methyl-N-methylsulfonyl-oxazole-4-carboxamide] | 0.631 | > 10
Cc1sc(N(CCc2ccc(Cl)cc2)c2ccc(C#N)cc2)nc1C(=O)NS(C)(=O)=O [Compound 133, 2-[N-[2-(4-chlorophenyl)ethyl]-4-cyano-anilino]-5-methyl-N-methylsulfonyl-thiazole-4-carboxamide] | 0.158 | 1.58
Cc1sc(N(Cc2cccc(Oc3ccccc3)c2)c2ccc(C#N)cc2)nc1C(=O)NS(C)(=O)=O [Compound 82, 2-[4-cyano-N-[(3-phenoxyphenyl)methyl]anilino]-5-methyl-N-methylsulfonyl-thiazole-4-carboxamide] | 0.0794 | > 10
Cc1ccc(CN(c2ccc(C#N)cc2)c2nc(C(=O)NS(C)(=O)=O)c(C)s2)cc1 [Compound 17, 2-[4-cyano-N-(p-tolylmethyl)anilino]-5-methyl-N-methylsulfonyl-thiazole-4-carboxamide] | 0.0251 | 0.0251
Cc1nc(CN(CCc2ccc(Cl)cc2)c2nc(C(=O)NS(C)(=O)=O)c(C)s2)cs1 [Compound 504, 2-[2-(4-chlorophenyl)ethyl-[(2-methylthiazol-4-yl)methyl]amino]-5-methyl-N-methylsulfonyl-thiazole-4-carboxamide] | 0.0631 | 0.631
Cc1cc(CN(CCc2ccc(OC(F)(F)F)cc2)c2nc(C(=O)NS(C)(=O)=O)c(C)s2)no1 [Compound 509, 5-methyl-2-[(5-methylisoxazol-3-yl)methyl-[2-[4-(trifluoromethoxy)phenyl]ethyl]amino]-N-methylsulfonyl-thiazole-4-carboxamide] | 0.2 | > 10
CS(=O)(=O)NC(=O)c1nc(N(Cc2cccc(OC(F)(F)F)c2)c2ccc(C#N)cc2)sc1Br [Example 252, 5-bromo-2-[4-cyano-N-[[3-(trifluoromethoxy)phenyl]methyl]anilino]-N-methylsulfonyl-thiazole-4-carboxamide] | 0.0316 | 0.0794
Cc1oc(N(CCc2ccccc2)c2ccc(C#N)cc2)nc1C(=O)NS(C)(=O)=O [Compound 625, 2-[4-cyano-N-(2-phenylethyl)anilino]-5-methyl-N-methylsulfonyl-oxazole-4-carboxamide] | 0.251 | 3.98
Cc1sc(N(Cc2ccccc2)c2ccc(C(F)(F)F)nc2)nc1C(=O)NS(C)(=O)=O [Example 223, 2-[benzyl-[6-(trifluoromethyl)-3-pyridyl]amino]-5-methyl-N-methylsulfonyl-thiazole-4-carboxamide] | 0.398 | 0.631
Cc1oc(N(CCc2ccc(Cl)cc2)Cc2ccc(F)cc2)nc1C(=O)NS(C)(=O)=O [Compound 550, 2-[2-(4-chlorophenyl)ethyl-[(4-fluorophenyl)methyl]amino]-5-methyl-N-methylsulfonyl-oxazole-4-carboxamide] | 0.0631 | 0.251
CCc1oc(N(Cc2ccc(C(F)(F)F)c(F)c2)c2ccc(C#N)cc2)nc1C(=O)NS(C)(=O)=O [Compound 655, 2-[4-cyano-N-[[3-fluoro-4-(trifluoromethyl)phenyl]methyl]anilino]-5-ethyl-N-methylsulfonyl-oxazole-4-carboxamide] | 0.0398 | 0.398
Cc1sc(N(Cc2ccc(Cl)cc2F)c2ccc(C#N)cc2)nc1C(=O)NS(C)(=O)=O [Compound 70, 2-[N-[(4-chloro-2-fluoro-phenyl)methyl]-4-cyano-anilino]-5-methyl-N-methylsulfonyl-thiazole-4-carboxamide] | 0.0316 | 0.0631
Cc1sc(N(Cc2ccc(-c3ccccc3F)nc2)c2ccc(C#N)cc2)nc1C(=O)NS(C)(=O)=O [Compound 591, 2-[4-cyano-N-[[6-(2-fluorophenyl)-3-pyridyl]methyl]anilino]-5-methyl-N-methylsulfonyl-thiazole-4-carboxamide] | 0.158 | 0.794
Cc1sc(N(Cc2ccc3c(c2)OCCO3)c2ccc(C#N)cc2)nc1C(=O)NS(C)(=O)=O [Compound 123, 2-[4-cyano-N-(2,3-dihydro-1,4-benzodioxin-6-ylmethyl)anilino]-5-methyl-N-methylsulfonyl-thiazole-4-carboxamide] | 0.0501 | 0.1
Cc1sc(N(CCc2ccc(Cl)cc2)Cc2cccc(F)c2)nc1C(=O)NS(C)(=O)=O [Compound 143, 2-[2-(4-chlorophenyl)ethyl-[(3-fluorophenyl)methyl]amino]-5-methyl-N-methylsulfonyl-thiazole-4-carboxamide] | 0.0251 | 0.0501
Cc1sc(N(Cc2cc(F)cc(Cl)c2)c2ccc(C#N)cc2)nc1C(=O)NS(C)(=O)=O [Compound 99, 2-[N-[(3-chloro-5-fluoro-phenyl)methyl]-4-cyano-anilino]-5-methyl-N-methylsulfonyl-thiazole-4-carboxamide] | 0.0631 | 0.126
Cc1sc(N(CCCCOc2ccccc2)c2ccc(C#N)cc2)nc1C(=O)NS(C)(=O)=O [Compound 369, 2-[4-cyano-N-(4-phenoxybutyl)anilino]-5-methyl-N-methylsulfonyl-thiazole-4-carboxamide] | 0.0794 | > 10
